The source of these data is patent publication US20260258032A1, “TYROSINE KINASE 2 INHIBITORS AND USES THEREOF” (BIOGEN MA INC., priority 2022, published 2026).

Where a name gives a salt, the structure may show the parent alone.

Assay [1] concerns Tyk2 kinase activity on STAT4. Briefly: pSTAT4 cell assay (MSD, NK92 cells). The conditions noted are these: compounds 1 hr, stimulated 15 minutes. In kind it is cell-based. The method in brief: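 Compound treatment of starved NK92 cells ran 1 hr before a 15-minute, 30 ng/mL IL2 pulse; lysates went to an MSD anti-STAT4 antibody assay, with curves fitted by 4-parameter logistic model.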

For assay [2], the target named is T1, JH2 domain of human Tyk2 (Homo sapiens, UniProt P29597).
T1 construct: 10×His-tagged TYK2 JH2 domain (amino acid 575-876)
Briefly: JH2 biochemical assay (TR-FRET probe displacement). The format is binding. The following applies: JH2 biochemical assay. The procedure, abridged: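 A probe-displacement TR-FRET readout: compounds, tested in 3-fold, 10-point dilutions starting at […], compete with 2 nM tracer for 2 nM His-tagged JH2 (residues 575-876) detected by 0.1 nM Tb-anti-His over 60 min. IC50 comes from 4-parameter fits of normalized 520/495 nm ratios.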
A general note: In TR-FRET formats the signal depends on donor and acceptor labels being close together.

T1 sequence (P29597 575-876): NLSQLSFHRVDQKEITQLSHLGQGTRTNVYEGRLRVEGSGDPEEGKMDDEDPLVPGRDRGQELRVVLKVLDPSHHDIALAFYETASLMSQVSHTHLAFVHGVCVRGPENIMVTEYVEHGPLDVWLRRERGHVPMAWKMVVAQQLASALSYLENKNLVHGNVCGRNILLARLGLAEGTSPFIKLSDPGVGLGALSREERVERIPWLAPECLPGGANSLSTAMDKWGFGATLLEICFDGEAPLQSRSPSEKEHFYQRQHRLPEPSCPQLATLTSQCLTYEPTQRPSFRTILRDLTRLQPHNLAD

One may read the IC50 as the concentration needed to halve the response being measured. A high value points to a need for much substance. For `CC(=O)Nc1cc2c(cn1)C1(CC1)CN2c1cc(NC2CC23CC3)nc(C(C)(F)F)n1` (stereo not drawn) [Example 176, N-(1′-(2-(1,1-difluoroethyl)-6-(spiro[2.2]pentan-1-ylamino)pyrimidin-4-yl)-1′,2′-dihydrospiro[cyclopropane-1,3′-pyrrolo[3,2-c]pyridin]-6′-yl)acetamide trifluoroacetate], the IC50 was 0.01 to 0.1 µM in assay [1] and ≤ 0.01 µM in assay [2].

As to `COC1CC1Nc1cc(N2CC3(CC3)c3cnc(NC(C)=O)cc32)nc(C(C)(F)F)n1` (stereo not drawn) [Example 177, N-(1′-(2-(1,1-difluoroethyl)-6-((2-methoxycyclopropyl)amino)pyrimidin-4-yl)-1′,2′-dihydrospiro[cyclopropane-1,3′-pyrrolo[3,2-c]pyridin]-6′-yl)acetamide], the results for the IC50 in assay [1] and in assay [2] were 0.01 to 0.1 µM and ≤ 0.01 µM, respectively.

For the molecule `COCC(C)Nc1cc(N2CC3(CC3)c3cnc(NC(C)=O)cc32)nc(C(C)(F)F)n1` (stereo not drawn) [Example 178, N-(1′-(2-(1,1-difluoroethyl)-6-((1-methoxypropan-2-yl)amino)pyrimidin-4-yl)-1′,2′-dihydrospiro[cyclopropane-1,3′-pyrrolo[3,2-c]pyridin]-6′-yl)acetamide trifluoroacetate], the results for the IC50 in assay [1] and in assay [2] were 0.01 to 0.1 µM and ≤ 0.01 µM, respectively.

As to `CC(=O)Nc1cc2c(cn1)C1(CC1)CN2c1cc(NC2CCOC2)nc(C(C)(F)F)n1` (stereo not drawn) [Example 179, N-(1′-(2-(1,1-difluoroethyl)-6-((tetrahydrofuran-3-yl)amino)pyrimidin-4-yl)-1′,2′-dihydrospiro[cyclopropane-1,3′-pyrrolo[3,2-c]pyridin]-6′-yl)acetamide trifluoroacetate], the values for the IC50 in assay [1] and in assay [2] were 0.01 to 0.1 µM and ≤ 0.01 µM, respectively.

As for `CC(=O)Nc1cc2c(cn1)C1(CC1)CN2c1cc(NCC(C)N(C)C)nc(C(C)(F)F)n1` (stereo not drawn) [Example 180, N-(1′-(2-(1,1-difluoroethyl)-6-((2-(dimethylamino)propyl)amino)pyrimidin-4-yl)-1′,2′-dihydrospiro[cyclopropane-1,3′-pyrrolo[3,2-c]pyridin]-6′-yl)acetamide trifluoroacetate], the IC50 in assay [1] lay in the range of 0.1 to 1 µM; in assay [2], 0.01 to 0.1 µM.

As for `CC(=O)Nc1cc2c(cn1)C1(CC1)CN2c1cc(NC2CCSC2)nc(C(C)(F)F)n1` (stereo not drawn) [Example 181, N-(1′-(2-(1,1-difluoroethyl)-6-((tetrahydrothiophen-3-yl)amino)pyrimidin-4-yl)-1′,2′-dihydrospiro[cyclopropane-1,3′-pyrrolo[3,2-c]pyridin]-6′-yl)acetamide], the IC50 in assay [1] is 0.01 to 0.1 µM; in assay [2], ≤ 0.01 µM.

Consider `CC(=O)Nc1cc2c(cn1)C1(CC1)CN2c1cc(NC2CC2C)nc(C(C)(F)F)n1` (stereo not drawn) [Example 182, N-(1′-(2-(1,1-difluoroethyl)-6-((2-methylcyclopropyl)amino)pyrimidin-4-yl)-1′,2′-dihydrospiro[cyclopropane-1,3′-pyrrolo[3,2-c]pyridin]-6′-yl)acetamide trifluoroacetate], for which the IC50 in assay [1] is 0.01 to 0.1 µM; in assay [2], ≤ 0.01 µM.

`CC(=O)Nc1cc2c(cn1)C1(CC1)CN2c1cc(C)cc(N2CCN(C)C(C(F)F)C2)n1` (stereo not drawn) [Example 183, N-(1′-(6-(3-(difluoromethyl)-4-methylpiperazin-1-yl)-4-methylpyridin-2-yl)-1′,2′-dihydrospiro[cyclopropane-1,3′-pyrrolo[3,2-c]pyridin]-6′-yl)acetamide]: the IC50 in assay [1] is ≥ 1 µM; in assay [2] it was 0.1 to 1 µM.

`CC(=O)Nc1cc2c(cn1)C1(CC1)CN2c1cc(C)cc(N2CCC(F)(F)C2)n1` [Example 184, N-(1′-(6-(3,3-difluoropyrrolidin-1-yl)-4-methylpyridin-2-yl)-1′,2′-dihydrospiro[cyclopropane-1,3′-pyrrolo[3,2-c]pyridin]-6′-yl)acetamide]: the IC50 is 0.1 to 1 µM in assay [1] and 0.01 to 0.1 µM in assay [2].

For `COCCOC1CCN(c2cc(C)cc(N3CC4(CC4)c4cnc(NC(C)=O)cc43)n2)C1` (stereo not drawn) [Example 185, N-(1′-(6-(3-(2-methoxyethoxy)pyrrolidin-1-yl)-4-methylpyridin-2-yl)-1′,2′-dihydrospiro[cyclopropane-1,3′-pyrrolo[3,2-c]pyridin]-6′-yl)acetamide], the IC50 was ≥ 1 µM in assay [1] and 0.1 to 1 µM in assay [2].

`CC(=O)Nc1cc2c(cn1)C1(CC1)CN2c1cc(C)cc(N2CCC(O)(C(F)(F)F)C2)n1` (stereo not drawn) [Example 186, N-(1′-(6-(3-hydroxy-3-(trifluoromethyl)pyrrolidin-1-yl)-4-methylpyridin-2-yl)-1′,2′-dihydrospiro[cyclopropane-1,3′-pyrrolo[3,2-c]pyridin]-6′-yl)acetamide]: the IC50 in assay [1] was ≥ 1 µM; in assay [2], 0.1 to 1 µM.

For `CC(=O)Nc1cc2c(cn1)C1(CC1)CN2c1cc(C)cc(N2CC(O)C(O)C2)n1` (stereo not drawn) [Example 187, N-(1′-(6-(3,4-dihydroxypyrrolidin-1-yl)-4-methylpyridin-2-yl)-1′,2′-dihydrospiro[cyclopropane-1,3′-pyrrolo[3,2-c]pyridin]-6′-yl)acetamide], the IC50 in assay [1] is ≥ 1 µM; in assay [2] it was 0.1 to 1 µM.

As to `COC1CCCN(c2cc(C)cc(N3CC4(CC4)c4cnc(NC(C)=O)cc43)n2)C1` (stereo not drawn) [Example 188, N-(1′-(6-(3-methoxypiperidin-1-yl)-4-methylpyridin-2-yl)-1′,2′-dihydrospiro[cyclopropane-1,3′-pyrrolo[3,2-c]pyridin]-6′-yl)acetamide], the IC50 in assay [1] is ≥ 1 µM; in assay [2] it was 0.1 to 1 µM.

As to `CC(=O)Nc1cc2c(cn1)C1(CC1)CN2c1cc(C)cc(N2CCC(O)C2)n1` (stereo not drawn) [Example 189, N-(1′-(6-(3-hydroxypyrrolidin-1-yl)-4-methylpyridin-2-yl)-1′,2′-dihydrospiro[cyclopropane-1,3′-pyrrolo[3,2-c]pyridin]-6′-yl)acetamide], the IC50 in assay [1] was ≥ 1 µM; in assay [2], 0.01 to 0.1 µM.

As for `CC(=O)Nc1cc2c(cn1)C1(CC1)CN2c1cc(C)cc(N(C)C)n1` [Example 190, N-(1′-(6-(dimethylamino)-4-methylpyridin-2-yl)-1′,2′-dihydrospiro[cyclopropane-1,3′-pyrrolo[3,2-c]pyridin]-6′-yl)acetamide], the IC50 in assay [1] is ≥ 1 µM; in assay [2], 0.01 to 0.1 µM.

`COCCNc1cc(C)cc(N2CC3(CC3)c3cnc(NC(C)=O)cc32)n1` [Example 191, N-(1′-(6-((2-methoxyethyl)amino)-4-methylpyridin-2-yl)-1′,2′-dihydrospiro[cyclopropane-1,3′-pyrrolo[3,2-c]pyridin]-6′-yl)acetamide]: the IC50 in assay [1] was ≥ 1 µM; in assay [2], 0.1 to 1 µM.

As for `CC(=O)Nc1cc2c(cn1)C1(CC1)CN2c1cc(C)cc(N2CCC(N(C)C)C2)n1` (stereo not drawn) [Example 192, N-(1′-(6-(3-(dimethylamino)pyrrolidin-1-yl)-4-methylpyridin-2-yl)-1′,2′-dihydrospiro[cyclopropane-1,3′-pyrrolo[3,2-c]pyridin]-6′-yl)acetamide trifluoroacetate], the IC50 in assay [1] is ≥ 1 µM; in assay [2], 0.1 to 1 µM.

As to `CC(=O)Nc1cc2c(cn1)C1(CC1)CN2c1cc(C)cc(N2CC(O)C2)n1` [Example 193, N-(1′-(6-(3-hydroxyazetidin-1-yl)-4-methylpyridin-2-yl)-1′,2′-dihydrospiro[cyclopropane-1,3′-pyrrolo[3,2-c]pyridin]-6′-yl)acetamide], the IC50 in assay [1] was ≥ 1 µM; in assay [2], 0.01 to 0.1 µM.

For the molecule `CC(=O)Nc1cc2c(cn1)C1(CC1)CN2c1cc(C)cc(N2CC(C#N)C2)n1` [Example 194, N-(1′-(6-(3-cyanoazetidin-1-yl)-4-methylpyridin-2-yl)-1′,2′-dihydrospiro[cyclopropane-1,3′-pyrrolo[3,2-c]pyridin]-6′-yl)acetamide], the IC50 in assay [1] was ≥ 1 µM; in assay [2], ≤ 0.01 µM.

On to `CC(=O)Nc1cc2c(cn1)C1(CC1)CN2c1cc(C)cc(N2CC(F)C2)n1` [Example 195, N-(1′-(6-(3-fluoroazetidin-1-yl)-4-methylpyridin-2-yl)-1′,2′-dihydrospiro[cyclopropane-1,3′-pyrrolo[3,2-c]pyridin]-6′-yl)acetamide], for which the IC50 is ≥ 1 µM in assay [1] and 0.01 to 0.1 µM in assay [2].

Turning to `CC(=O)Nc1cc2c(cn1)C1(CC1)CN2c1cc(C)cc(N2CC(C#N)(CF)C2)n1` [Example 196, N-(1′-(6-(3-cyano-3-(fluoromethyl)azetidin-1-yl)-4-methylpyridin-2-yl)-1′,2′-dihydrospiro[cyclopropane-1,3′-pyrrolo[3,2-c]pyridin]-6′-yl)acetamide], the IC50 in assay [1] was 0.1 to 1 µM; in assay [2] it was 0.01 to 0.1 µM.

Turning to `CCC1(C#N)CN(c2cc(C)cc(N3CC4(CC4)c4cnc(NC(C)=O)cc43)n2)C1` [Example 197, N-(1′-(6-(3-cyano-3-ethylazetidin-1-yl)-4-methylpyridin-2-yl)-1′,2′-dihydrospiro[cyclopropane-1,3′-pyrrolo[3,2-c]pyridin]-6′-yl)acetamide], the figures for the IC50 in assay [1] and in assay [2] were ≥ 1 µM and 0.01 to 0.1 µM, respectively.

`CC(=O)Nc1cc2c(cn1)C1(CC1)CN2c1cc(C)cc(N2CC(OC(F)F)C2)n1` [Example 198, N-(1′-(6-(3-(difluoromethoxy)azetidin-1-yl)-4-methylpyridin-2-yl)-1′,2′-dihydrospiro[cyclopropane-1,3′-pyrrolo[3,2-c]pyridin]-6′-yl)acetamide]: the half-maximal inhibitory concentration (IC50) in assay [1] is ≥ 1 µM; in assay [2] it was 0.1 to 1 µM.

For the molecule `COCCC1(C#N)CN(c2cc(C)cc(N3CC4(CC4)c4cnc(NC(C)=O)cc43)n2)C1` [Example 199, N-(1′-(6-(3-cyano-3-(2-methoxyethyl)azetidin-1-yl)-4-methylpyridin-2-yl)-1′,2′-dihydrospiro[cyclopropane-1,3′-pyrrolo[3,2-c]pyridin]-6′-yl)acetamide], the values for the IC50 in assay [1] and in assay [2] were ≥ 1 µM and 0.01 to 0.1 µM, respectively.
